Active and inactive are the calls of the source. Rule as the data show it, for most assays here: actives have a measured EC50 and inactives only a lower limit.
What was measured:
[1] = Luminescence Cell-Based Dose Confirmation HTS to Identify Activators of 5'UTR Stem-Loop Driven Alpha-Synuclein mRNA Translation in H4 Neuroglioblastoma Cells. [Related pubchem assays: 1829 (Project Summary), 1814 (Primary HTS)]; type: functional
[2] = Luminescence Cell-Based Dose Confirmation to Identify Activators of 5'UTR Stem-Loop Driven Alpha-Synuclein mRNA Translation in H4 Neuroglioblastoma Cells. [Related pubchem assays: 1829 (Project Summary), 1814 (Primary HTS)]; type: functional
[3] = system: HeLa; test: ATP-based viability loss in HeLa cells – cell-based, CellTiter-Glo luminescence, cherry-pick samples, cytotoxicity control for MITF activator project, dose response (AID 540259); type: functional; conditions: Homo sapiens
[4] = Luminescence Cell-Based Dose Response to Identify Activators of Luciferase Translation or Activity in H4-C Neuroglioblastoma Cells. [Related pubchem assays: 1829 (Project Summary), 1814 (Primary HTS)]; type: functional
[5] = Luminescence Cell-Based Dose Response HTS to Identify Activators of Luciferase Translation or Activity in H4 […] Cells. [Related pubchem assays: 1829 (Project Summary), 1814 (Primary HTS)]; type: functional
[6] = system: H4; test: Luminescence Cell-Based Dose Response HTS to Identify Activators of 5'UTR Stem-Loop Driven Prion Protein mRNA Translation in H4 Neuroglioblastoma Cells. [Related pubchem assays: 1829 (Project Summary), 1814 (Primary HTS)]; type: functional; conditions: Homo sapiens
[7] = Luminescence Cell-Based Dose Response to Identify Activators of 5'UTR Stem-Loop Driven Prion Protein mRNA Translation in H4-C Neuroglioblastoma Cells. [Related pubchem assays: 1829 (Project Summary), 1814 (Primary HTS)]; type: functional
[8] = target: T1, Bcl-2-related protein A1 (Mus musculus, UniProt Q07440); test: Bfl-1 binding inhibitors, SAR follow-up, biochemical, fluorescence polarization (AID 1070)
T1 sequence (Q07440 whole entry): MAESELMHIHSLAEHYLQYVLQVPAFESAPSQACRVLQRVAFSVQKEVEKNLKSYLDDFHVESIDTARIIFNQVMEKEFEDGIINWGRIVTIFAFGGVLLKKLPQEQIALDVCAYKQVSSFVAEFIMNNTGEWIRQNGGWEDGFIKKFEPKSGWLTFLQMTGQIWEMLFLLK

[9] = target: T1, Bcl-2-related protein A1; test: small-molecule antagonists of Bfl-1/BH3 interaction – biochemical, TR-FRET, mouse Bfl-1, confirmation (AID 621);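 also: TR-FRET binding of GST-Bfl-1 to FITC-labelled Bid peptide via terbium antibody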
[10] = target: T2, Streptokinase A (Streptococcus pyogenes serotype M1, UniProt P10520); test: viability-normalized secreted streptokinase activity reduction – plasminogen activation absorbance, OD405, dose response (AID 1914); type: functional, Streptococcus pyogenes M1 GAS;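 also: secreted streptokinase activity via plasminogen activation per viability signal from cell pellet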
T2 sequence (P10520 whole entry): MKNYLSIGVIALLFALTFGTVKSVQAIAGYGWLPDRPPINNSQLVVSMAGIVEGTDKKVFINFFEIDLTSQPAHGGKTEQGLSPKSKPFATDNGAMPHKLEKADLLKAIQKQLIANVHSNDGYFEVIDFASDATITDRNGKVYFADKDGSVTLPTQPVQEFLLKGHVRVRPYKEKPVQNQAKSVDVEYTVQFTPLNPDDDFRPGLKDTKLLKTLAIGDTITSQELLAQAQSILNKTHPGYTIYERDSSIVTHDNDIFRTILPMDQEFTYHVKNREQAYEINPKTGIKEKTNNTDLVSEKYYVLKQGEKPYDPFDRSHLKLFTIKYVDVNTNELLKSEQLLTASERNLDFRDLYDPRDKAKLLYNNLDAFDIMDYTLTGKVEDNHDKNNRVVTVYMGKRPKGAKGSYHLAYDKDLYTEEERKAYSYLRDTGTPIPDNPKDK

[11] = target: Protein-tyrosine kinase 2-beta (Homo sapiens, UniProt Q14289);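 also: potency of inhibitors of PYK2 kinase phosphorylation of poly-GT substrate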
Protein-tyrosine kinase 2-beta, sequence (Q14289 whole entry): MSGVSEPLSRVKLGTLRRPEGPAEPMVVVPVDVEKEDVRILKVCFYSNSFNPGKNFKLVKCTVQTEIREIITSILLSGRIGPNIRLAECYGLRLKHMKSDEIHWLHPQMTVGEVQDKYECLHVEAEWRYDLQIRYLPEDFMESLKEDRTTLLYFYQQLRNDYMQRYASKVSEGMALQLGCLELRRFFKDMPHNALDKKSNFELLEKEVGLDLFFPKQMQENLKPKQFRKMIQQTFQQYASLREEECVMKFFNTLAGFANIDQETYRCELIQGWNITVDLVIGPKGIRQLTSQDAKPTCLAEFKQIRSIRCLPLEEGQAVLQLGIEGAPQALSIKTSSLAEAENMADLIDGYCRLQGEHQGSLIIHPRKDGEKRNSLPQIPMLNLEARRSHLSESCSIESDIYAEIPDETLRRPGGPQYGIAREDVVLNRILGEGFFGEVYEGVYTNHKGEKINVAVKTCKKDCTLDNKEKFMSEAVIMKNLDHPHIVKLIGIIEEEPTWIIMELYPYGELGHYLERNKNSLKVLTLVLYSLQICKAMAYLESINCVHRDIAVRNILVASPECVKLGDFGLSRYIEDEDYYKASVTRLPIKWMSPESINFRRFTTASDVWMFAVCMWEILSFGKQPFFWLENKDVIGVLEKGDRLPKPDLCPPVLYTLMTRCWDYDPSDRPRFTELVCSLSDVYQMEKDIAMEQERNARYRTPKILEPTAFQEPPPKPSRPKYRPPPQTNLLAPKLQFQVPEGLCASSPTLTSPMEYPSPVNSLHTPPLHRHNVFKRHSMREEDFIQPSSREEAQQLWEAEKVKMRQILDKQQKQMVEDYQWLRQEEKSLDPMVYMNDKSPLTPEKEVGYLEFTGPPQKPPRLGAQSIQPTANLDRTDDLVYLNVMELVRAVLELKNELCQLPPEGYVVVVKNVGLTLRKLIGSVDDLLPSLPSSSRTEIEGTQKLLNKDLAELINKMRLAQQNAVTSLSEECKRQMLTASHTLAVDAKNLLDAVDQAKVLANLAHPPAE

[12] = system: Streptococcus; test: GAS UMAA2166 growth inhibition – luminescence, BacTiterGlo, counter-screen for streptokinase expression inhibitor project, dose response (AID 1915); type: functional, organism-based;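 also: potency for reduction of bacterial viability or growth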
[13] = target: T3, Microphthalmia-associated transcription factor (Homo sapiens, UniProt O75030); test: reducers of TRPM1 reporter luminescence, concentration series – cell-based, SK-MEL-5, cherry-picked, set 3, MITF inhibitor project, dose response (AID 493073); type: functional;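 also: SK-MEL-5 melanoma cells with luciferase driven by the MITF target TRPM1 promoter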
T3 sequence (O75030 whole entry): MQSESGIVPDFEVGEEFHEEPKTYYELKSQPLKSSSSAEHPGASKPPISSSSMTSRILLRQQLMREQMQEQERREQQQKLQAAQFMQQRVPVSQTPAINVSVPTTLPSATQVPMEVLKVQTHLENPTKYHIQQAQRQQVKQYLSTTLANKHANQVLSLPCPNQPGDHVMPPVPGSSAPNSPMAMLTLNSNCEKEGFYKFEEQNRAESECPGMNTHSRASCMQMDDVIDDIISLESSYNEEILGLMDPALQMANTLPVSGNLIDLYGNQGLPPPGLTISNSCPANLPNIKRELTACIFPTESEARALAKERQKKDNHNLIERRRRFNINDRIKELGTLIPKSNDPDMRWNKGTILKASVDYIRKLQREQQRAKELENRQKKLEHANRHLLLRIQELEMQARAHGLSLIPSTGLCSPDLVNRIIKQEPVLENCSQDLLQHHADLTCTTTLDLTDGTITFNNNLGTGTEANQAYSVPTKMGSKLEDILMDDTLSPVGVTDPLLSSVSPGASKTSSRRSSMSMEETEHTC

[14] = system: Streptococcus sp. 'group A'; test: Streptococcus pyogenes SK(-)GAS viability under kanamycin – luminescence, BacTiterGlo, confirmation, counter-screen for streptokinase expression inhibitor project, dose response (AID 1900); type: functional, organism-based

With CS(=O)(=O)N1N=C(c2ccc(Br)cc2)CC1c1ccc2c(c1)OCO2 (centres undefined) the EC50 [1] was 174 nM (active), the EC50 [2] was 467 nM (active) and the AC50 [3] was 61.3 µM (active). For the same compound, the EC50 [4] was 344 nM (active), the EC50 [5] was < 100 nM (active) and the EC50 [6] was < 100 nM (active). For the same compound, the EC50 [7] was 328 nM (active).

In the case of Clc1ccc(-n2nnc(-c3cc4ccccc4nc3Cl)n2)cn1, the IC50 [8] is reported as > 100 µM (not active) and the IC50 [9] is reported as > 100 µM (not active).

With CCOc1cc(/C=C2/NC(=S)NC2=O)ccc1OCc1ccc([N+](=O)[O-])cc1 the EC50 [10] was 8.31 µM (active), the IC50 [11] was 3.76 µM (active) and the EC50 [12] was > 150 µM (not active). The AC50 [13] was 8.19 µM (active) and the EC50 [14] was 3.85 µM (active).

— ChEMBL document CHEMBL1201862, “PubChem BioAssay data set” (2004)
